Test results: PMC11272826, “Metabolism of alcohol ethoxylates (AEs) in rat, hamster, and human hepatocytes and liver S9: a pilot study for metabolic stability, metabolic pathway, and metabolites identification in vitro and in silico” (Archives of Toxicology, 2024)

How the values were obtained:
hamster hepatocytes [1] = assay: Metabolic stability in cryopreserved hepatocytes (disappearance, half-life, CLint); conditions: hamster hepatocytes; for Initial concentration remaining after 120 min incubation: range over 1 and 10 µM
Method: (§2) The metabolic stability assay was performed in a 48-well plate format (duplicate with cells and single without cells).
(§3) The hepatocytes were thawed and re-suspended in Celsis InVitro KHB medium (pH 7.4). […] The samples were collected and stored at − 20 °C for further analysis.
(§4) The UPLC-Q-Exactive Orbitrap MS system consisted of a Thermo Vanquish Horizon UHPLC with an autosampler, vacuum degasser, photodiode array (PDA) detector (210–500 nm), and column oven coupled to a Q-Exactive Orbitrap Focus mass spectrometer (Thermo Fisher Scientific, Waltham, MA, USA). The analytical column used was a Waters Acquity BEH C8 2.1 × 50 mm with 1.7 particle size (Waters Corp, Milford, MA, USA). The temperature of the column oven was 40 °C, and the injection volume was 4 μl. The aqueous eluent (A) was 0.1% formic acid (B) was acetonitrile. […] The eluent flow rate was 0.5 ml/min and the flow was directed to the MS through a PDA detector. The data acquisition was performed using positive Electrospray Ionization (ESI+) polarity with a capillary voltage of 3000 V. Capillary temperature was 320 °C and auxiliary gas temperature was 500 °C. The mass spectrometer was operated in the data-dependent MS2 mode, which acquires full-scan MS and MS/MS fragment ion data in the same run. Scan was performed with a resolution of 35,000 (full width at half maximum at m/z 200), while an Automated Gain Control target of a million ions, maximum injection time of 100 ms, and a scan range of 100–1000 m/z were used. […] Nitrogen was used as a sheath gas with 50 units, auxiliary gas with 10 units and as a sweep gas with 5 units. Ion chromatograms were extracted from the total ion chromatograms using calculated monoisotopic accurate masses with 5 mDa window. Calibration curves were generated using an external standard. The data were processed with Thermo Xcalibur 4.1.31.9 software.
(§5) The first-order rate constants k (min^−1) of the metabolism were obtained from the slope of time versus ln (% remaining) plots using Excel software. All time points (log-scale) were used in fitting the rate constant k based on visual inspection of the curves.
(§6) The in vitro half-life (t1/2) of the test compound(s) is defined as: t1/2=ln2/k
(§7) CLint,inc = k*V/(M), where V is the volume of the incubation and M is the number of cells or amount of S9 protein in the incubation.

[2] = as above; conditions: Syrian, hamster, pooled cryopreserved hepatocytes, pH 7.4
Method: as §2, §3, §4, §5, §6, §7

[3] = Metabolic stability in liver S9 fraction (disappearance, half-life, CLint); conditions: for Initial concentration remaining after 60 min incubation: human liver S9, range over 1 and 10 µM; for microsomal CLint at 1 µM / microsomal CLint at 10 µM / half-life at 1 µM / half-life at 10 µM: human; for microsomal CLint at 1 µM / microsomal CLint at 10 µM: pooled liver S9, pH 7.4; for half-life at 1 µM: pooled liver S9, pH 7.4, Half-lives t1/2, Liver S9, 1 μM; for half-life at 10 µM: pooled liver S9, pH 7.4, Half-lives t1/2, Liver S9, 10 μM
Method: The metabolic stability assay was performed in a 48-well plate format (duplicate with cofactors and single without cofactors).
Each incubation contained test compound (final concentration of 1 or 10 µM), liver S9 (1.5 mg/ml protein content), Cofactors (1 mM NADPH + 1 mM UDPGA + 0.2 mM PAPS), MgCl2 (2 mM), and potassium phosphate buffer (100 mM at pH 7.4). […] The incubation was carried out at 37 °C for 60 min with and without cofactors. […] The samples were collected and stored at − 20 °C for further analysis.
(§8) The in vitro metabolism of the five individual homologue AEs (i.e. C8EO4, C10EO5, C12EO4, C16EO8, and C18EO3) was analyzed by liquid chromatography–mass spectrometry (LC–MS). The UPLC-Q-Exactive Orbitrap MS system consisted of a Thermo Vanquish Horizon UHPLC with an autosampler, vacuum degasser, photodiode array (PDA) detector (210–500 nm), and column oven coupled to a Q-Exactive Orbitrap Focus mass spectrometer (Thermo Fisher Scientific, Waltham, MA, USA). The analytical column used was a Waters Acquity BEH C8 2.1 × 50 mm with 1.7 particle size (Waters Corp, Milford, MA, USA). The temperature of the column oven was 40 °C, and the injection volume was 4 μl. The aqueous eluent (A) was 0.1% formic acid (B) was acetonitrile. […] The eluent flow rate was 0.5 ml/min and the flow was directed to the MS through a PDA detector. The data acquisition was performed using positive Electrospray Ionization (ESI+) polarity with a capillary voltage of 3000 V. Capillary temperature was 320 °C and auxiliary gas temperature was 500 °C. The mass spectrometer was operated in the data-dependent MS2 mode, which acquires full-scan MS and MS/MS fragment ion data in the same run. Scan was performed with a resolution of 35,000 (full width at half maximum at m/z 200), while an Automated Gain Control target of a million ions, maximum injection time of 100 ms, and a scan range of 100–1000 m/z were used. […] Nitrogen was used as a sheath gas with 50 units, auxiliary gas with 10 units and as a sweep gas with 5 units. Ion chromatograms were extracted from the total ion chromatograms using calculated monoisotopic accurate masses with 5 mDa window. Calibration curves were generated using an external standard. The data were processed with Thermo Xcalibur 4.1.31.9 software.
as §5, §6, §7

hamster hepatocytes [4] = assay: Metabolite profiling by LC-MS in hepatocytes; conditions: for Number of metabolites detected: hamster hepatocytes; for Percentage of the total peak area, Hepatocytes, Hamster: 120 min
Method: as §3, §8

[5] = Metabolic stability in liver S9 fraction (disappearance, half-life, CLint); conditions: for half-life at 1 µM / half-life at 10 µM / microsomal CLint at 1 µM / microsomal CLint at 10 µM: pooled liver S9, pH 7.4; for Relative LC/MS peak area: with cofactors, 60 min
Method: (§1) Calibration curves were generated using an external standard.
Intrinsic in vitro clearance was calculated as follows: […]

[6] = Metabolic stability in cryopreserved hepatocytes (disappearance, half-life, CLint); conditions: Sprague Dawley, rat, pooled cryopreserved hepatocytes, pH 7.4
Method: as §2, §3, §4, §5, §6, §7

rat hepatocytes [7] = assay: as above; conditions: rat hepatocytes; for Initial concentration remaining after 120 min incubation: range over 1 and 10 µM
Method: as §2, §3, §4, §5, §6, §7

[8] = Metabolite profiling by LC-MS in buffer (incubation without cells); conditions: 120 min
Method: as §3, §8

human hepatocytes [9] = assay: Metabolite profiling by LC-MS in hepatocytes; conditions: for Number of metabolites detected: human hepatocytes; for Percentage of the total peak area, Hepatocytes, Human: 120 min
Method: as §3, §8

rat hepatocytes [10] = assay: Metabolite profiling by LC-MS in hepatocytes; conditions: for Percentage of the total peak area, Hepatocytes, Rat: 120 min; for Number of metabolites detected: rat hepatocytes
Method: as §3, §8

[11] = Metabolite profiling by LC-MS in liver S9
Text: as §1

[12] = Metabolic stability in cryopreserved hepatocytes (disappearance, half-life, CLint); conditions: human, pooled cryopreserved hepatocytes, pH 7.4
Method: as §2, §3, §4, §5, §6, §7

human hepatocytes [13] = assay: as above; conditions: human hepatocytes; for Initial concentration remaining after 120 min incubation: range over 1 and 10 µM
Method: as §2, §3, §4, §5, §6, §7

[14] = tested on: female Colworth Wistar rats; design: method as in Unilever [1978]; conditions: 14C-labelled, oral, rat, ref Unilever [1978], cited from earlier work
[15] = metabolite profile of C8EO4, 10 µM incubation
[16] = hamster liver S9, range over 1 and 10 µM
[17] = rat liver S9, range over 1 and 10 µM
[18] = metabolite profile of C10EO5, 10 µM incubation
[19] = metabolite profile of C10EO5, 10 µM incubation, 60 min
[20] = metabolite profile of C12EO4, 10 µM incubation
[21] = metabolite profile of C12EO4, 10 µM incubation, 60 min

CCCCCCCCOCCOCCOCCOCCO [C8EO4]
Initial concentration remaining after 120 min incubation (hamster hepatocytes [1]): 0.1–3% | half-life at 1 µM [2]: 4.3 min | half-life at 10 µM [2]: 6.5 min | Initial concentration remaining after 60 min incubation [3]: 1–6% | microsomal CLint at 1 µM [3]: 39.2 µL/min/mg | microsomal CLint at 10 µM [3]: 33.6 µL/min/mg | half-life at 1 µM [3]: 11.8 min | half-life at 10 µM [3]: 13.8 min | Number of metabolites detected (hamster hepatocytes [4]): 22 | Percentage of the total peak area, Hepatocytes, Hamster (hamster hepatocytes [4]; [15]): 0.1% | half-life at 1 µM ([5]; Sprague-Dawley, rat): 37.8 min | half-life at 10 µM ([5]; Sprague-Dawley, rat): 58.1 min | microsomal CLint at 1 µM ([5]; Sprague-Dawley, rat): 12.2 µL/min/mg | microsomal CLint at 10 µM ([5]; Sprague-Dawley, rat): 7.95 µL/min/mg | half-life at 1 µM ([5]; Syrian, hamster): 7.7 min | half-life at 10 µM ([5]; Syrian, hamster): 14.5 min | microsomal CLint at 1 µM ([5]; Syrian, hamster): 59.7 µL/min/mg | microsomal CLint at 10 µM ([5]; Syrian, hamster): 31.8 µL/min/mg | Initial concentration remaining after 60 min incubation [5, 16]: 1–6% | Initial concentration remaining after 60 min incubation [5, 17]: 34–49% | half-life at 1 µM [6]: 3.2 min | half-life at 10 µM [6]: 3.6 min | Initial concentration remaining after 120 min incubation (rat hepatocytes [7]): 0.1–3% | Percentage of the total peak area, Hepatocytes, Buffer ([8]; metabolite profile of C8EO4, 10 µM incubation without cells): 99.8% | Number of metabolites detected (human hepatocytes [9]): 21 | Percentage of the total peak area, Hepatocytes, Human (human hepatocytes [9]; [15]): 0.1% | Percentage of the total peak area, Hepatocytes, Rat (rat hepatocytes [10]; [15]): 0.1% | Number of metabolites detected (rat hepatocytes [10]): 20 | Number of metabolites detected ([11]; hamster liver S9): 20 | Number of metabolites detected ([11]; human liver S9): 17 | Number of metabolites detected ([11]; rat liver S9): 16 | half-life at 1 µM [12]: 12.9 min | half-life at 10 µM [12]: 12 min | Initial concentration remaining after 120 min incubation (human hepatocytes [13]): 0.1–3%

CCCCCCCCCCOCCOCCOCCOCCOCCO [C10EO5]
Initial concentration remaining after 120 min incubation (hamster hepatocytes [1]): 0.2–4% | half-life at 1 µM [2]: 4.5 min | half-life at 10 µM [2]: 10.6 min | Initial concentration remaining after 60 min incubation [3]: 0.01–4% | microsomal CLint at 1 µM [3]: 234 µL/min/mg | microsomal CLint at 10 µM [3]: 170 µL/min/mg | half-life at 1 µM [3]: 2 min | half-life at 10 µM [3]: 2.7 min | Number of metabolites detected (hamster hepatocytes [4]): 28 | Percentage of the total peak area, Hepatocytes, Hamster (hamster hepatocytes [4]; [18]): 0.7% | half-life at 1 µM ([5]; Sprague-Dawley, rat): 8.3 min | half-life at 10 µM ([5]; Sprague-Dawley, rat): 12 min | microsomal CLint at 1 µM ([5]; Sprague-Dawley, rat): 55.7 µL/min/mg | microsomal CLint at 10 µM ([5]; Sprague-Dawley, rat): 38 µL/min/mg | half-life at 1 µM ([5]; Syrian, hamster): 8.1 min | half-life at 10 µM ([5]; Syrian, hamster): 12 min | microsomal CLint at 1 µM ([5]; Syrian, hamster): 57.3 µL/min/mg | microsomal CLint at 10 µM ([5]; Syrian, hamster): 40 µL/min/mg | Initial concentration remaining after 60 min incubation [5, 16]: 0.01–4% | Initial concentration remaining after 60 min incubation [5, 17]: 0.01–4% | half-life at 1 µM [6]: 2.9 min | half-life at 10 µM [6]: 1.9 min | Initial concentration remaining after 120 min incubation (rat hepatocytes [7]): 0.2–4% | Percentage of the total peak area, Hepatocytes, Buffer ([8]; metabolite profile of C10EO5, 10 µM incubation without cells): 98.7% | Number of metabolites detected (human hepatocytes [9]): 28 | Percentage of the total peak area, Hepatocytes, Human (human hepatocytes [9]; [18]): 0.3% | Percentage of the total peak area, Hepatocytes, Rat (rat hepatocytes [10]; [18]): 0.8% | Number of metabolites detected (rat hepatocytes [10]): 28 | Number of metabolites detected ([11]; human liver S9): 26 | Percentage of the total peak area, Liver S9 without cofactors, Hamster [11, 19]: 97.9% | Percentage of the total peak area, Liver S9 without cofactors, Human [11, 19]: 97.7% | Percentage of the total peak area, Liver S9 without cofactors, Rat [11, 19]: 98.2% | half-life at 1 µM [12]: 4 min | half-life at 10 µM [12]: 4.9 min | Initial concentration remaining after 120 min incubation (human hepatocytes [13]): 0.2–4%

CCCCCCCCCCCCOCCOCCOCCO [C12EO3]
Total recovery in urine, feces, air, and carcass of the administered compound ([14]; 4 days): ~100% | 14C in air [14]: about 10%

CCCCCCCCCCCCOCCOCCOCCOCCO [C12EO4]
Relative LC/MS peak area (hamster hepatocytes [1]; 10 μM, 120 min): 11% | half-life at 1 µM [2]: 789 min | half-life at 10 µM [2]: 17 min | Relative LC/MS peak area ([3]; human liver S9, 10 μM, with cofactors, 60 min): 3% | microsomal CLint at 10 µM [3]: 51.2 µL/min/mg | half-life at 10 µM [3]: 9 min | Percentage of the total peak area, Hepatocytes, Hamster (hamster hepatocytes [4]; [20]): 13.2% | half-life at 1 µM ([5]; Sprague-Dawley, rat): 26 min | half-life at 10 µM ([5]; Sprague-Dawley, rat): 11 min | microsomal CLint at 1 µM ([5]; Sprague-Dawley, rat): 17.5 µL/min/mg | microsomal CLint at 10 µM ([5]; Sprague-Dawley, rat): 40.7 µL/min/mg | half-life at 10 µM ([5]; Syrian, hamster): 26 min | microsomal CLint at 10 µM ([5]; Syrian, hamster): 17.9 µL/min/mg | Relative LC/MS peak area ([5]; hamster liver S9, 10 μM): 24% | Relative LC/MS peak area ([5]; rat liver S9, 10 μM): 3% | half-life at 10 µM [6]: 8.9 min | Relative LC/MS peak area (rat hepatocytes [7]; 10 μM, 120 min): 12% | Percentage of the total peak area, Hepatocytes, Buffer ([8]; metabolite profile of C12EO4, 10 µM incubation without cells): 79.1% | Number of metabolites detected (human hepatocytes [9]): 28 | Percentage of the total peak area, Hepatocytes, Human (human hepatocytes [9]; [20]): 12.5% | Percentage of the total peak area, Hepatocytes, Rat (rat hepatocytes [10]; [20]): 12.7% | Percentage of the total peak area, Liver S9 with cofactors, Hamster [11, 21]: 18.1% | Percentage of the total peak area, Liver S9 with cofactors, Human [11, 21]: 2.1% | Percentage of the total peak area, Liver S9 with cofactors, Rat [11, 21]: 2.0% | Percentage of the total peak area, Liver S9 without cofactors, Hamster [11, 21]: 98.4% | Percentage of the total peak area, Liver S9 without cofactors, Human [11, 21]: 98.8% | Percentage of the total peak area, Liver S9 without cofactors, Rat [11, 21]: 99.7% | half-life at 10 µM [12]: 15 min | Relative LC/MS peak area (human hepatocytes [13]; 10 μM, 120 min): 40%
